Data as given in US11072581B2, “N-acyl-arylsulfonamide derivatives as aminoacyl-tRNA synthetase inhibitors” (Oxford Drug Design Limited, priority 2015, dated 2021).
Structures can show the parent of a compound that is named as a salt. Where two headings read alike, the source gives them in different places.

Experiments:
[1] = biological target: T1, EcoVRS (valyl-tRNA synthetase from Escherichia coli) (Escherichia coli, UniProt P07118); test: aaRS aminoacylation assay (ATP consumption), EcoVRS; format: biochemical; conditions: i.a. = inactive at a concentration below 50 uM
T1 construct: made in house; host or cells: Escherichia coli M15
T1 sequence (P07118 whole entry): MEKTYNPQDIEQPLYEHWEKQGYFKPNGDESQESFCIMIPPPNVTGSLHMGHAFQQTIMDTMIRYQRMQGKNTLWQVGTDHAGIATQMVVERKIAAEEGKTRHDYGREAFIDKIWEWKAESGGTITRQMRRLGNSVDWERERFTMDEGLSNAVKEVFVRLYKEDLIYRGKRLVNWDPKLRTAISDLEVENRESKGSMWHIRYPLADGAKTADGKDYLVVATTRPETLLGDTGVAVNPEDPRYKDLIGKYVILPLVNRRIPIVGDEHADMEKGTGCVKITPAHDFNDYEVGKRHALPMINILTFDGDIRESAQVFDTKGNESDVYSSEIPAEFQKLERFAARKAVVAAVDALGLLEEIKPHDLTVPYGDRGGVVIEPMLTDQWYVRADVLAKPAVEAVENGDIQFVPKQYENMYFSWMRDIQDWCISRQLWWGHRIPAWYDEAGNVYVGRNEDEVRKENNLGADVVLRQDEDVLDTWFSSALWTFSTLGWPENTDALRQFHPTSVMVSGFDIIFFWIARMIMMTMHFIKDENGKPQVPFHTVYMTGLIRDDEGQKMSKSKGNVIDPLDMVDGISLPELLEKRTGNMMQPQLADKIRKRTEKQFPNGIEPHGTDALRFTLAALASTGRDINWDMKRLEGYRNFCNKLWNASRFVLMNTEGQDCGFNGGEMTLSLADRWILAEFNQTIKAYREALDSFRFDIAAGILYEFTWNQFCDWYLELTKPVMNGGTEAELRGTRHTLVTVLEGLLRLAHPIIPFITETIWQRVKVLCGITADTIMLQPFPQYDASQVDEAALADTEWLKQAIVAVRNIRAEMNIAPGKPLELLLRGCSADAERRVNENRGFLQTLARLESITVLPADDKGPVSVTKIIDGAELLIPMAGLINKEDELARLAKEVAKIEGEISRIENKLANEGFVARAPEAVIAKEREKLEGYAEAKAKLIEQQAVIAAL
Protocol: (§1) The compounds have been tested for antibacterial activity in vitro as aminoacyl-tRNA synthetases (aaRS) inhibitors following the following process.
(§2) Leucyl-, valyl- and isoleucyl-tRNA synthetases (LRS, VRS and IRS, respectively) from Escherichia coli (Eco) and Staphylococcus aureus (Sau).
(§3) Escherichia coli M15 cells transformed with plasmid pQE-60, or pQE-70, containing the open-reading frame sequence of one targeted aaRS were induced with 1 mM IPTG (Isopropyl β-D-1-thiogalactopyranoside) for 3 h at 37° C. Bacterial cells were harvested and lysed with 20 mM NaH2PO4 (pH 8.0), 200 mM NaCl, 10 mM imidazole and protease inhibitor cocktail (Roche). Pathogenic aaRS was purified by nickel affinity standard chromatography. Protein concentration was determined by spectrophotometry.
(§4) tRNA^Leu, tRNA^Val and tRNA^Ile from E. coli and S. aureus were transcribed in vitro for 4 h at 37° C. using T7 RNA polymerase. Transcription reaction contained 40 mM Tris-HCl (pH 8.0), 22 mM MgCl2, 1 mM spermidine, 5 mM DTT, 0.01% Triton X-100, 4 mM GTP, 4 mM ATP, 4 mM UTP, 4 mM CTP, 16 mM GMP, […] T7 RNA polymerase and 150 μg BstNI digested plasmid. Once finished, the reaction was applied on a 6% polyacrylamide-8 M urea denaturing gel to purify the transcribed tRNA and discard any impurities. Purified tRNA was quantified with Nanodrop 2000 (Thermo Scientific).
(§5) The aminoacylation reaction catalyzed by aminoacyl-tRNA synthetases (aaRS) takes place in two steps. In the first step, aaRS activates its cognate amino acid with ATP; and in the second step the activated amino acid is loaded to its corresponding tRNA. This reaction can be summarized as follows: ARS+aa+ATP=ARS-aa-AMP+PPi ARS-aa-AMP+tRNA=aa-tRNA+AMP+ARS [2] (ARS, Aminoacyl-tRNA synthetase; aa, amino acid; ARS-aa-AMP, enzyme-bound to aminoacyl-adenylate; aa-tRNA, aminoacyl-tRNA).
(§6) The activity of the pathogenic aaRSs was monitored by measuring the ATP consumption rate, since this consumption is directly proportional to the activity of the aaRS. If the tested compound, at a single point concentration of 50 μM, is inhibiting the aminoacylation reaction, there is a decrease in the ATP consumption, compared to the control reaction without compound, allowing the calculation of an inhibition ratio.
(§7) When the inhibition ratio for a given compound was above 80%, IC50 determination was performed with the same enzymatic assay (using the commercial kit Kinase RR from BioThema AB, Sweden) in the presence of serial dilutions of inhibitor. Known inhibitors of LRS, VRS or IRS were used as a positive control of the assay. The IC50 was calculated based on nonlinear regression analysis.

[2] = biological target: T2, SauLRS (leucyl-tRNA synthetase from Staphylococcus aureus) (Staphylococcus aureus, UniProt Q2FXH2); test: aaRS aminoacylation assay (ATP consumption), SauLRS; format: biochemical
T2 construct: made in house; host or cells: Escherichia coli M15
T2 sequence (Q2FXH2 1-805): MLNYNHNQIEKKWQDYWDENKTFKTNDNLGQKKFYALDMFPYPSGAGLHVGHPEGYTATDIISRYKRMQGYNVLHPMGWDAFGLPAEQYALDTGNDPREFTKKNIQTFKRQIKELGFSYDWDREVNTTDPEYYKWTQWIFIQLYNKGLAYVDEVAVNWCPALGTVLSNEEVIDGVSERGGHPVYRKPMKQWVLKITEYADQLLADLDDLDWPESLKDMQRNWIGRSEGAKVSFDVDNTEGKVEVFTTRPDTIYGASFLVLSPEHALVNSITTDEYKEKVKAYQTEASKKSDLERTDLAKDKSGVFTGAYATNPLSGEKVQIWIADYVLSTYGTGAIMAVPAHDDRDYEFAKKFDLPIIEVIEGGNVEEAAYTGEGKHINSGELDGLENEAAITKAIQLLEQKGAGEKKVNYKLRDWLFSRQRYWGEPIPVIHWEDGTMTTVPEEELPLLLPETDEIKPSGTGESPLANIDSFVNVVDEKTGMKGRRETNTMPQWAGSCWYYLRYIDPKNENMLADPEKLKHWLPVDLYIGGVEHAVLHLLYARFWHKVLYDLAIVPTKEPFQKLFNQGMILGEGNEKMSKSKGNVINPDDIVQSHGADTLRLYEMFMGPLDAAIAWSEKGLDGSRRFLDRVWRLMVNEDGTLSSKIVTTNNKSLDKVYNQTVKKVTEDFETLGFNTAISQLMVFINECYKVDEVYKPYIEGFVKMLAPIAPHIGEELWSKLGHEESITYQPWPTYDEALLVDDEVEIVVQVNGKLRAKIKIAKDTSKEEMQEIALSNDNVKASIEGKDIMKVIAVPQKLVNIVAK
Protocol: as §1, §2, §3, §4, §5, §6, §7

[3] = biological target: T3, EcoIRS (isoleucyl-tRNA synthetase from Escherichia coli) (Escherichia coli, UniProt P00956); test: aaRS aminoacylation assay (ATP consumption), EcoIRS; format: biochemical; conditions: i.a. = inactive at a concentration below 50 uM
T3 construct: made in house; host or cells: Escherichia coli M15
T3 sequence (P00956 whole entry): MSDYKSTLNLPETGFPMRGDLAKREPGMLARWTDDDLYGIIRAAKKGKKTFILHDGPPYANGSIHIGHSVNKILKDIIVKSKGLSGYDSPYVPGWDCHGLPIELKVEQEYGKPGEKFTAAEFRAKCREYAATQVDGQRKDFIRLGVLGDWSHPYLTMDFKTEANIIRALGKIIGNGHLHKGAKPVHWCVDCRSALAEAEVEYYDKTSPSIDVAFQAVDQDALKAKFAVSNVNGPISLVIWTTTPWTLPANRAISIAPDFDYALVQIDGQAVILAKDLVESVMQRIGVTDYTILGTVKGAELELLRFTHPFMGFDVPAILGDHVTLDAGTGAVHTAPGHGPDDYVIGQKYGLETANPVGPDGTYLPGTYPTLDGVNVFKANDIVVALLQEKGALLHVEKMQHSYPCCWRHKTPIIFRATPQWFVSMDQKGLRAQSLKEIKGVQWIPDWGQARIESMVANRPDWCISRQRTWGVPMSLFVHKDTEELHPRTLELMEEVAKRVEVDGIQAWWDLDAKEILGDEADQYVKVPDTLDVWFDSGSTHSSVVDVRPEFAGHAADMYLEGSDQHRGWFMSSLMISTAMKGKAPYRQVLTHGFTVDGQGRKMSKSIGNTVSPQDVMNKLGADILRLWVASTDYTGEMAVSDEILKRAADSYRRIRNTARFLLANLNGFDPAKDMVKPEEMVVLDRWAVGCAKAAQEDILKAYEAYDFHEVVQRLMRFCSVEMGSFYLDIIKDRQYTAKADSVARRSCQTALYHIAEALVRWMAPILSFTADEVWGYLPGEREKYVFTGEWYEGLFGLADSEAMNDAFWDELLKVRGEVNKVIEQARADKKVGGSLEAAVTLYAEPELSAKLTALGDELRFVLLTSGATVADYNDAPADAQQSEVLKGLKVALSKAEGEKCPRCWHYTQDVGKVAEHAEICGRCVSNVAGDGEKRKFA
Protocol: as §1, §2, §3, §4, §5, §6, §7

[4] = i.a. = inactive at a concentration below 50 uM, read-out: IC50 SauLRS
[5] = i.a. = inactive at a concentration below 50 uM

Structure (SMILES): CCc1cc(-c2cccc(S(=O)(=O)NC(=O)[C@@H](N)CC(C)C)c2)nc(N)n1 [Compound 5.47]
- IC50 EcoVRS [1]: i.a.
- IC50 [2, 4]: 2.15 µM

Structure (SMILES): CC(C)C[C@H](N)C(=O)NS(=O)(=O)c1cccc(-c2ccnc(N)c2)c1 [Compound 5.43]
- IC50 EcoVRS [1]: i.a.
- IC50 [2, 4]: 0.33 µM
- melting point: 141 °C (dec.)

Structure (SMILES): CC(C)C[C@H](N)C(=O)NS(=O)(=O)c1ccccc1Cl [Compound 5.5]
- IC50 EcoIRS [3]: i.a
- IC50 EcoVRS [1]: i.a
- IC50 [2, 4]: 13.2 µM

Structure (SMILES): CC(C)C[C@H](N)C(=O)NS(=O)(=O)c1ccccc1 [Compound 5.1, (S)-2-amino-4-methyl-N-(phenylsulfonyl)pentanamide hydrochloride]
- IC50 EcoIRS [3]: i.a.
- IC50 EcoVRS [1]: i.a.
- IC50 [2, 4]: 5.4 µM

Structure (SMILES): CC(C)C[C@H](N)C(=O)NS(=O)(=O)c1cccc(-c2ncnc(N)n2)c1 [Compound 5.48]
- IC50 EcoVRS [1]: i.a.
- IC50 [2, 4]: 0.53 µM

Structure (SMILES): CC(C)C[C@H](N)C(=O)NS(=O)(=O)c1cccc(-c2ccnc(O)n2)c1 [Compound 5.50]
- IC50 EcoVRS [1]: i.a.
- IC50 [2, 4]: 13.9 µM
- melting point: 191 to 221 °C (dec.)

Structure (SMILES): CC(C)C[C@H](N)C(=O)NS(=O)(=O)c1cccc2c(N(C)C)cccc12 [Compound 5.16, (S)-2-amino-N-((5-(dimethylamino)naphthalen-1-yl)sulfonyl)-4-methylpentanamide hydrochloride]
- IC50 EcoIRS [3]: i.a
- IC50 EcoVRS [1]: i.a
- IC50 SauLRS [2, 5]: i.a

Structure (SMILES): CC(C)C[C@H](N)C(=O)NS(=O)(=O)c1cccc2cccnc12 [Compound 5.19]
- IC50 EcoIRS [3]: i.a
- IC50 EcoVRS [1]: i.a
- IC50 [2, 4]: 16.8 µM

Structure (SMILES): COc1cc(-c2cccc(S(=O)(=O)NC(=O)[C@@H](N)CC(C)C)c2)nc(N)n1 [Compound 5.36]
- IC50 EcoVRS [1]: i.a.
- IC50 [2, 4]: 3 µM
- melting point: 87 to 88 °C (dec.)

Structure (SMILES): Cc1cc(-c2cccc(S(=O)(=O)NC(=O)[C@@H](N)CC3CCCCC3)c2)nc(N)n1 [Compound 5.34]
- IC50 EcoIRS [3]: i.a
- IC50 EcoVRS [1]: i.a
- IC50 SauLRS [2, 5]: i.a

Structure (SMILES): CC(C)C[C@H](N)C(=O)NS(=O)(=O)c1cccc2cc(C(N)=O)ncc12 [Compound 5.24, 8-(N-(L-Leucyl)sulfamoyl)isoquinoline-3-carboxamide]
- IC50 EcoIRS [3]: i.a
- IC50 EcoVRS [1]: i.a
- IC50 [2, 4]: 8.5 µM

Structure (SMILES): CSc1cc(-c2cccc(S(=O)(=O)NC(=O)[C@@H](N)CC(C)C)c2)nc(N)n1 [Compound 5.29]
- IC50 EcoIRS [3]: i.a
- IC50 EcoVRS [1]: i.a
- IC50 [2, 4]: 1.2 µM

Structure (SMILES): CC(C)C[C@H](N)C(=O)NS(=O)(=O)c1cccc(-c2cc(-c3ccccc3)nc(N)n2)c1 [Compound 5.41]
- IC50 EcoVRS [1]: i.a.
- IC50 [2, 4]: 3 µM
- melting point: 186 to 188 °C (dec.)

Structure (SMILES): CC(C)C[C@H](N)C(=O)NS(=O)(=O)c1cccc(-c2ccnc(Cl)n2)c1 [Compound 5.49]
- IC50 EcoVRS [1]: i.a.
- IC50 [2, 4]: 6.23 µM
- melting point: 231 to 238 °C (dec.)

Structure (SMILES): Cc1cc(-c2cccc(S(=O)(=O)NC(=O)[C@@H](N)CC3CCC3)c2)nc(N)n1 [Compound 5.31]
- IC50 EcoIRS [3]: i.a
- IC50 EcoVRS [1]: i.a
- IC50 SauLRS [2, 5]: i.a

Structure (SMILES): CC(C)C[C@H](N)C(=O)NS(=O)(=O)c1ccccc1F [Compound 5.6]
- IC50 EcoIRS [3]: i.a
- IC50 EcoVRS [1]: i.a
- IC50 [2, 4]: 17 µM

Structure (SMILES): CNc1cc(-c2cccc(S(=O)(=O)NC(=O)[C@@H](N)CC(C)C)c2)nc(N)n1 [Compound 5.27]
- IC50 EcoIRS [3]: i.a
- IC50 EcoVRS [1]: i.a
- IC50 [2, 4]: 0.26 µM

Structure (SMILES): CC(C)C[C@H](N)C(=O)NS(=O)(=O)c1cccc2ccccc12 [Compound 5.13]
- IC50 EcoIRS [3]: i.a
- IC50 EcoVRS [1]: i.a
- IC50 [2, 4]: 16.1 µM

Structure (SMILES): CC(C)C[C@H](N)C(=O)NS(=O)(=O)c1cccc(-c2ccnc(N)n2)c1 [Compound 5.37]
- IC50 EcoVRS [1]: i.a.
- IC50 [2, 4]: 2.18 µM
- melting point: 224 to 226 °C (dec.)

Structure (SMILES): CC(C)C[C@H](N)C(=O)NS(=O)(=O)c1cccc(-c2cc(N)ncn2)c1 [Compound 5.46]
- IC50 EcoVRS [1]: i.a.
- IC50 [2, 4]: 1.3 µM

Structure (SMILES): Cc1cc(-c2cccc(S(=O)(=O)NC(=O)[C@@H](N)CC(C)C)c2)ncn1 [Compound 5.39]
- IC50 EcoVRS [1]: i.a.
- IC50 [2, 4]: 2 µM
- melting point: 246 °C

Structure (SMILES): CC(C)C[C@H](N)C(=O)NS(=O)(=O)c1cccc(-c2ccncc2)c1 [Compound 5.42]
- IC50 EcoVRS [1]: i.a.
- IC50 [2]: 0.81 µM
- melting point: 151 °C (dec.)

Structure (SMILES): CC(C)C[C@H](N)C(=O)NS(=O)(=O)c1cccc(-c2cc(N(C)C)nc(N)n2)c1 [Compound 5.28]
- IC50 EcoIRS [3]: i.a
- IC50 EcoVRS [1]: i.a
- IC50 [2, 4]: 4.8 µM

Structure (SMILES): CC(C)C[C@H](N)C(=O)NS(=O)(=O)c1cccc(-c2nc(N)nc3nc[nH]c23)c1 [Compound 5.38]
- IC50 EcoVRS [1]: i.a.
- IC50 [2, 4]: 1.11 µM
- melting point: 117 °C (dec.)

Structure (SMILES): CC(C)C[C@H](N)C(=O)NS(=O)(=O)c1ccc(Br)c2ccncc12 [Compound 5.22, trifluoroacetate]
- IC50 EcoIRS [3]: i.a
- IC50 EcoVRS [1]: i.a
- IC50 [2, 4]: 11.5 µM

Structure (SMILES): CC(C)C[C@H](N)C(=O)NS(=O)(=O)c1cccc(-c2cc(N)nc(N)n2)c1 [Compound 5.45]
- IC50 EcoVRS [1]: i.a.
- IC50 [2, 4]: 0.72 µM
- melting point: 234 °C (dec.)

Structure (SMILES): CC(C)C[C@H](N)C(=O)NS(=O)(=O)c1cccc(-c2cccc(N)n2)c1 [Compound 5.44]
- IC50 EcoVRS [1]: i.a.
- IC50 [2, 4]: 1.64 µM
- melting point: 148 °C (dec.)

Structure (SMILES): CC(C)C[C@H](N)C(=O)NS(=O)(=O)c1cccc(Cl)c1 [Compound 5.4]
- IC50 EcoIRS [3]: i.a
- IC50 EcoVRS [1]: i.a
- IC50 [2, 4]: 0.92 µM

Structure (SMILES): Cc1cc(-c2cccc(S(=O)(=O)NC(=O)[C@@H](N)CC(C)C)c2)nc(N)n1 [Compound 5.35, (S)-2-amino-N-((3-(2-amino-6-methylpyrimidin-4-yl)phenyl)sulfonyl)-4-methylpentanamide]
- IC50 EcoVRS [1]: i.a.
- IC50 [2, 4]: 4.34 µM
- melting point: 241 to 242 °C (dec.)

Structure (SMILES): CC[C@H](C)[C@H](N)C(=O)NS(=O)(=O)c1cccc(-c2cc(C)nc(N)n2)c1 [Compound 5.40]
- IC50 EcoVRS [1]: i.a.
- IC50 SauLRS [2, 5]: i.a.
- melting point: 97 °C

Structure (SMILES): CC(C)C[C@H](N)C(=O)NS(=O)(=O)c1cccc2c1CNCC2 [Compound 5.26, (S)-2-amino-4-methyl-N-((1,2,3,4-tetrahydroisoquinolin-8-yl)sulfonyl) pentanamide trifluoroacetate]
- IC50 EcoIRS [3]: i.a
- IC50 EcoVRS [1]: i.a
- IC50 [2, 4]: 20 µM

Structure (SMILES): CCCCc1ccc(S(=O)(=O)NC(=O)[C@@H](N)CC(C)C)cc1 [Compound 5.7]
- IC50 EcoIRS [3]: i.a
- IC50 EcoVRS [1]: i.a
- IC50 [2, 4]: 4.9 µM
